These compounds were tested against dopamine transporter (DAT) (Rattus norvegicus (Rat), UniProt P23977) (assay: [3H]dopamine (DA) uptake inhibition in rat brain (caudate) synaptosomes). Settings: not given.
Format: biochemical
Protocol: Uptake inhibition assay for the dopamine transporter was conducted in rat brain synaptosomes as described elsewhere with minor modifications (Rothman et al., Synapse 39, 32-41 (2001)). Freshly removed caudate was homogenized in 10% ice-cold sucrose with 12 strokes of a hand-held Potter-Elvehjem homogenizer followed by centrifugation at 1000×g for 10 min. The supernatants were saved on ice and used immediately. Transporter activity was assessed using 5 nM [^3H]dopamine. The assay buffer was Krebs-phosphate buffer containing 154.4 mM NaCl, 2.9 mM KCl, 1.1 mM CaCl2, 0.83 mM MgCl2, 5 mM glucose, 1 mg/mL ascorbic acid, and 50 μM pargyline. The selectivity of the uptake assay for DAT was optimized by including 100 nM citalopram and 100 nM desipramine as blockers of SERT and NET in the sucrose solution and assay buffer. Uptake inhibition assays were conducted at 25° C. and were initiated by adding 100 μl of tissue to 900 μL assay buffer containing test drug and [^3H]dopamine. Test drugs were diluted in assay buffer containing 1 mg/mL bovine serum albumin. Nonspecific uptake was measured by incubating in the presence of 10 μM indatraline. The reactions were stopped after 15 minutes by rapid vacuum filtration with a cell harvester (BRANDEL) over GF/B filters (Whatman) presoaked in wash buffer maintained at 25° C. (10 mM Tris-HCl, pH 7.4/150 mM NaCl). Filters were rinsed with 6 mL wash buffer and retained tritium was quantified by a MicroBeta liquid scintillation counter (PerkinElmer) after overnight extraction in 0.6 mL of liquid scintillation cocktail (Cytoscint, ICN). The data from three experiments were pooled and fit to a dose-response curve equation (using Kaleidagraph), to yield an Emax and EC50 value.
All of the test compounds were synthesized as described herein. Next, 8-point dose-response curves were generated for each compound (1-20,000 nM) in the [^3H]DA uptake assay. The data from three experiments were pooled and fit to a dose-response curve equation (using KaleidaGraph; Synergy Software, Reading, Pa.) to yield an Emax and IC50 value. […] Selected compounds were also tested for their ability to inhibit [^3H]WIN35428 binding to rat caudate DAT.

dopamine transporter (DAT), sequence (P23977 whole entry): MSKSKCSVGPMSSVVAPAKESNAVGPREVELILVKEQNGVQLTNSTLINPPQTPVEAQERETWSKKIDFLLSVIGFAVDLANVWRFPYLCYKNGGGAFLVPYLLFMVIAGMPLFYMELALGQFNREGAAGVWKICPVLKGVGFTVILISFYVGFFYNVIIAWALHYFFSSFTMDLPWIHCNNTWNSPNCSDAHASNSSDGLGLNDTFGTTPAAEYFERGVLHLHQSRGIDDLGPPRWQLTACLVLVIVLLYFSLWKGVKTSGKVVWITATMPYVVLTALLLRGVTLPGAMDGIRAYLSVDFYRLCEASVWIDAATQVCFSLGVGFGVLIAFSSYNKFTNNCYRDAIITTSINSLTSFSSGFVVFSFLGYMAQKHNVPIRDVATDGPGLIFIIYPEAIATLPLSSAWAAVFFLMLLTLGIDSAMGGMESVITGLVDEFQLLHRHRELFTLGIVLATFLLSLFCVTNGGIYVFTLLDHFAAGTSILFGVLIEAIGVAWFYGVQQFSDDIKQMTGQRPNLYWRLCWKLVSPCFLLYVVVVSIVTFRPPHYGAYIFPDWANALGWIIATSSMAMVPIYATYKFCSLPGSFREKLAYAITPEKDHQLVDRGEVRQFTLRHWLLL

Structure (SMILES)	Efficacy of [3H]DA (DAT) uptake inhibition, in words
CN(C)c1ccc(-c2nc(NCC(c3ccccc3)N3CCOCC3)c3ccccc3n2)cc1 (stereo not drawn) [Compound 18, 2-(4-(dimethylamino)phenyl)-N-(2-morpholino-2-phenylethyl)quinazolin-4-amine]	partially inhibits

Same assay, conditions: [3H]DA uptake, one-component fit

Structure (SMILES)	One-Site Emax [% I]
CN(C)c1ccc(-c2nc(NCC(c3ccccc3)N3CCOCC3)c3ccccc3n2)cc1 (stereo not drawn) [Compound 18, 2-(4-(dimethylamino)phenyl)-N-(2-morpholino-2-phenylethyl)quinazolin-4-amine]	75 ± 5

Same assay, conditions: [3H]DA uptake, two-component fit, component 1

Structure (SMILES)	Two-Site Emax-1 [% I]
CN(C)c1ccc(-c2nc(NCC(c3ccccc3)N3CCOCC3)c3ccccc3n2)cc1 (stereo not drawn) [Compound 18, 2-(4-(dimethylamino)phenyl)-N-(2-morpholino-2-phenylethyl)quinazolin-4-amine]	57 ± 2

Same assay, conditions: [3H]DA uptake, two-component fit, component 2

Structure (SMILES)	Two-Site Emax-2 [% I]
CN(C)c1ccc(-c2nc(NCC(c3ccccc3)N3CCOCC3)c3ccccc3n2)cc1 (stereo not drawn) [Compound 18, 2-(4-(dimethylamino)phenyl)-N-(2-morpholino-2-phenylethyl)quinazolin-4-amine]	42 ± 4

Same assay, conditions: rat caudate synaptosomes, 5 nM [3H]dopamine, mean ± SD

Structure (SMILES)	DA Uptake Emax [% I]	EC50 [nM]
Cc1ccc(-c2nc(NCC(c3ccccc3)c3cccc(Cl)n3)c3ccccc3n2)cc1 (stereo not drawn) [Compound 1, N-(2-(6-chloropyridin-2-yl)-2-phenylethyl)-2-(p-tolyl)quinazolin-4-amine]	100	380
CS(=O)(=O)Nc1ccc(-c2nc(NCC(c3ccccc3)c3ccccn3)c3ccccc3n2)cc1 (stereo not drawn) [Compound 2, N-(4-(4-((2-phenyl-2-(pyridin-2-yl)ethyl)amino)quinazolin-2-yl)phenyl)methanesulfonamide]	90 ± 3	50 ± 10
CN(C)c1ccc(-c2nc(NCC(c3ccccc3)c3ccccn3)c3ccccc3n2)cc1 (stereo not drawn) [Compound 3, 2-(4-(dimethylamino)phenyl)-N-(2-phenyl-2-(pyridin-2-yl)ethyl)quinazolin-4-amine]	91 ± 4	22 ± 6
CN(C)c1ccc(-c2nc(NCC(O)(c3ccccc3)c3ccccc3)c3ccccc3n2)cc1 [Compound 5, 2-((2-(4-(dimethylamino)phenyl)quinazolin-4-yl)amino)-1,1-diphenylethanol]	74 ± 2	6.7 ± 1.4
CS(=O)(=O)Nc1ccc(-c2nc(NCC(c3ccccc3)C3CCCCC3)c3ccccc3n2)cc1 (stereo not drawn) [Compound 6, N-(4-(4-((2-cyclohexyl-2-phenylethyl)amino)quinazolin-2-yl)phenyl)methanesulfonamide]	75 ± 2	16 ± 2
CN(C)c1ccc(-c2nc(NCC(c3ccccc3)C3CCCCC3)c3ccccc3n2)cc1 (stereo not drawn) [Compound 7, N-(2-cyclohexyl-2-phenylethyl)-2-(4-(dimethylamino)phenyl)quinazolin-4-amine]	71 ± 3	46 ± 10
CS(=O)(=O)Nc1ccc(-c2nc(NCC(c3ccccc3)c3ncccn3)c3ccccc3n2)cc1 (stereo not drawn) [Compound 8, N-(4-(4-((2-phenyl-2-(pyrimidin-2-yl)ethyl)amino)quinazolin-2-yl)phenyl)methanesulfonamide]	88 ± 3	477 ± 75
CN(C)c1ccc(-c2nc(NCC(c3ccccc3)c3ncccn3)c3ccccc3n2)cc1 (stereo not drawn) [Compound 9, 2-(4-(dimethylamino)phenyl)-N-(2-phenyl-2-(pyrimidin-2-yl)ethyl)quinazolin-4-amine]	91 ± 3	117 ± 22
CN(C)c1ccc(-c2nc(NCC(c3ccccc3)c3ccncc3)c3ccccc3n2)cc1 (stereo not drawn) [Compound 11, 2-(4-(Dimethylamino)phenyl)-N-(2-phenyl-2-(pyridin-4-yl)ethyl)quinazolin-4-amine]	77 ± 2	13 ± 3
CS(=O)(=O)Nc1ccc(-c2nc(NCC(c3ccccc3)n3ccnc3)c3ccccc3n2)cc1 (stereo not drawn) [Compound 12, N-(4-(4-((2-(1H-imidazol-1-yl)-2-phenylethyl)amino)quinazolin-2-yl)phenyl)methanesulfonamide]	70 ± 3	100 ± 22
CN(C)c1ccc(-c2nc(NCC(c3ccccc3)n3ccnc3)c3ccccc3n2)cc1 (stereo not drawn) [Compound 13, N-(2-(1H-imidazol-1-yl)-2-phenylethyl)-2-(4-(dimethylamino)phenyl)quinazolin-4-amine]	86 ± 3	138 ± 21
CN(C)c1ccc(-c2nc(NCC(c3ccccc3)c3ccc[nH]3)c3ccccc3n2)cc1 (stereo not drawn) [Compound 14, 2-(4-(dimethylamino)phenyl)-N-(2-phenyl-2-(1H-pyrrol-2-yl)ethyl)quinazolin-4-amine]	77 ± 4	5.6 ± 2.1
CS(=O)(=O)Nc1ccc(-c2nc(NCC(c3ccccc3)c3ccc[nH]3)c3ccccc3n2)cc1 (stereo not drawn) [Compound 15, N-(4-(4-((2-phenyl-2-(1H-pyrrol-2-yl)ethyl)amino)quinazolin-2-yl)phenyl)methanesulfonamide]	63 ± 2	43 ± 8
CN(C)c1ccc(-c2nc(NCC(c3ccccc3)N3CCCCC3)c3ccccc3n2)cc1 (stereo not drawn) [Compound 16, 2-(4-(dimethylamino)phenyl)-N-(2-phenyl-2-(piperidin-1-yl)ethyl)quinazolin-4-amine]	88 ± 4	34 ± 9
CS(=O)(=O)Nc1ccc(-c2nc(NCC(c3ccccc3)N3CCCCC3)c3ccccc3n2)cc1 (stereo not drawn) [Compound 17, N-(4-(4-((2-phenyl-2-(piperidin-1-yl)ethyl)amino)quinazolin-2-yl)phenyl)methanesulfonamide]	83 ± 5	62 ± 20
CN(C)c1ccc(-c2nc(NCC(c3ccccc3)N3CCOCC3)c3ccccc3n2)cc1 (stereo not drawn) [Compound 18, 2-(4-(dimethylamino)phenyl)-N-(2-morpholino-2-phenylethyl)quinazolin-4-amine]	75 ± 5	15 ± 7
CS(=O)(=O)Nc1ccc(-c2nc(NCC(c3ccccc3)N3CCOCC3)c3ccccc3n2)cc1 (stereo not drawn) [Compound 19, N-(4-(4-((2-morpholino-2-phenylethyl)amino)quinazolin-2-yl)phenyl)methanesulfonamide]	71 ± 4	43 ± 13
CS(=O)(=O)Nc1ccc(-c2nc(NCC(c3ccccc3)N3CCCC3)c3ccccc3n2)cc1 (stereo not drawn) [Compound 20, N-(4-(4-((2-phenyl-2-(pyrrolidin-1-yl)ethyl)amino)quinazolin-2-yl)phenyl)methanesulfonamide]	79 ± 5	160 ± 51
CN(C)c1ccc(-c2nc(NCC(c3ccccc3)N3CCCC3)c3ccccc3n2)cc1 (stereo not drawn) [Compound 21, 2-(4-(dimethylamino)phenyl)-N-(2-phenyl-2-(pyrrolidin-1-yl)ethyl)quinazolin-4-amine]	92 ± 4	112 ± 26
CN1CCN(C(CNc2nc(-c3ccc(N(C)C)cc3)nc3ccccc23)c2ccccc2)CC1 (stereo not drawn) [Compound 22, 2-(4-(dimethylamino)phenyl)-N-(2-(4-methylpiperazin-1-yl)-2-phenylethyl)quinazolin-4-amine]	91 ± 4	30 ± 8
CN1CCN(C(CNc2nc(-c3ccc(NS(C)(=O)=O)cc3)nc3ccccc23)c2ccccc2)CC1 (stereo not drawn) [Compound 23, N-(4-(4-((2-(4-methylpiperazin-1-yl)-2-phenylethyl)amino)quinazolin-2-yl)phenyl)methanesulfonamide]	77 ± 3	62 ± 15
CN(C)c1ccc(-c2nc(NCC(c3ccccc3)c3cccnc3)c3ccccc3n2)cc1 (stereo not drawn) [Compound 24, 2-(4-(dimethylamino)phenyl)-N-(2-phenyl-2-(pyridin-3-yl)ethyl)quinazolin-4-amine]	79 ± 3	24 ± 5
CS(=O)(=O)Nc1ccc(-c2nc(NCC(c3ccccc3)c3cccnc3)c3ccccc3n2)cc1 (stereo not drawn) [Compound 25, N-(4-(4-((2-phenyl-2-(pyridin-3-yl)ethyl)amino)quinazolin-2-yl)phenyl)methanesulfonamide]	73 ± 2	25 ± 4
CN(C)c1ccc(-c2nc(NCC(Cc3ccccc3)c3ccccc3)c3ccccc3n2)cc1 (stereo not drawn) [Compound 26, 2-(4-(dimethylamino)phenyl)-N-(2,3-diphenylpropyl)quinazolin-4-amine]	78 ± 3	39 ± 9
CS(=O)(=O)Nc1ccc(-c2nc(NCC(Cc3ccccc3)c3ccccc3)c3ccccc3n2)cc1 (stereo not drawn) [Compound 27, N-(4-(4-((2,3-diphenylpropyl)amino)quinazolin-2-yl)phenyl)methanesulfonamide]	76 ± 2	58 ± 9
Cc1cc(N(C)C)ccc1-c1nc(NCC(c2ccccc2)c2ccc(CO)[nH]2)c2ccccc2n1 (stereo not drawn) [Compound 28, (5-(2-((2-(4-(dimethylamino)-2-methylphenyl)quinazolin-4-yl)amino)-1-phenylethyl)-1H-pyrrol-2-yl)methanol]	84 ± 5	18 ± 7
CS(=O)(=O)Nc1ccc(-c2nc(NCC(c3cccnc3)c3ccc[nH]3)c3ccccc3n2)cc1 (stereo not drawn) [Compound 30, N-(4-(4-((2-(pyridin-3-yl)-2-(1H-pyrrol-2-yl)ethyl)amino)quinazolin-2-yl)phenyl)methanesulfonamide]	79 ± 3	202 ± 42
CN(C)c1ccc(-c2nc(NCC(c3cccnc3)c3ccc[nH]3)c3ccccc3n2)cc1 (stereo not drawn) [Compound 31, 2-(4-(dimethylamino)phenyl)-N-(2-(pyridin-3-yl)-2-(1H-pyrrol-2-yl)ethyl)quinazolin-4-amine]	85 ± 4	47 ± 12

— US10087148B2, “Quinazolines as biogenic amine transport modulators” (THE UNITED STATES OF AMERICA AS REPRESENTED BY THE …, priority 2014, dated 2018)
